Read-outs that look alike come from different tables or passages of the source.
Legend:
[1] = in vivo; for tmax, median (range): 300 mg
[2] = clinical; conditions: male, human, in vivo, po, 200 mg/day; for AUC: AUC24, gmean; for Cmax: gmean
[3] = tested on: vascular endothelial growth factor and epidermal growth factor; conditions: cellular assays for VEGF and EGF; cited from earlier work
[4] = for half-life: t½, gmean (CV%)
[5] = tested on: healthy male subjects; experiment: Study B: safety and tolerability assessments; assay type: in vivo
[6] = tested on: healthy male subjects; experiment: Study A: safety and tolerability assessments; assay type: in vivo
[7] = for increase in AUC504: vandetanib + itraconazole compared with vandetanib alone

COc1cc2c(Nc3ccc(Br)cc3F)ncnc2cc1OCC1CCNCC1 [N-desmethylvandetanib]
AUC504 of metabolite as % of AUC504 of vandetanib [1]: ≈ 7%
tmax, median (range) [1]: 5 h

CC(O)C(C)n1ncn(-c2ccc(N3CCN(c4ccc(OCC5COC(Cn6cncn6)(c6ccc(Cl)cc6Cl)O5)cc4)CC3)cc2)c1=O (stereo not shown) [hydroxy-itraconazole]
AUC [2]: 7690 ng·h/mL
Cmax [2]: 413 ng/mL

CCC(C)n1ncn(-c2ccc(N3CCN(c4ccc(OCC5COC(Cn6cncn6)(c6ccc(Cl)cc6Cl)O5)cc4)CC3)cc2)c1=O (stereo not shown) [itraconazole, reference compound]
AUC [2]: 5040 ng·h/mL
Cmax [2]: 424 ng/mL

COc1cc2c(Nc3ccc(Br)cc3F)ncnc2cc1OCC1CC[N+](C)([O-])CC1 (stereo not shown) [vandetanib N-oxide]
increase in AUCct [1]: 126%
time post-dose by which plasma concentrations were nonquantifiable [1]: 96 to 240 h
tmax, median (range) [1]: 7 h
activity relative to vandetanib (fold less active) [3]: > 50 fold

COc1cc2c(Nc3ccc(Br)cc3F)ncnc2cc1OCC1CCN(C)CC1 [vandetanib]
median time to Cmax ([4]; both studies (A and B), vandetanib 300 mg single dose): 5 to 6 h
Tmax ([4]; male, human, plasma, oral, 300 mg): 6 h
half-life ([4]; male, human, plasma, oral, 300 mg, after vandetanib 300 mg alone): 218 h
half-life ([4]; male, human, plasma, oral, after vandetanib 300 mg + rifampicin): 116 h
subjects with increase from baseline in QTC of >60 ms [5]: Three subjects
increase in mean QTC interval after the dose ([5]; at each timepoint): ≤ 20 ms
tolerability ([5]; single dose 300 mg): well tolerated
subjects reporting adverse events ([5]; vandetanib in the absence of itraconazole): 31.3%
tolerability ([6]; single dose 300 mg): well tolerated
change in mean corrected QT (QTC) interval ([6]; vandetanib alone or in combination with rifampicin): no clinically important changes
subjects with increase from baseline in QTC interval of >60 ms ([6]; vandetanib in combination with rifampicin): One subject
subjects reporting adverse events ([6]; vandetanib in the presence of rifampicin): 31.3%
Tmax ([7]; male, human, in vivo, 300 mg): 5 h
increase in AUC504 [7]: 9%
increase in AUC504 ([7]; listed as Vandetanib): about 9%
